This is an account of results in patent US20040034052A1, “Tricyclic derivatives of indole with antiangiogenic activity” (priority 2003, published 2004).

Data set [1] has as its system MCF-7 (human mammary carcinoma). Put plainly: Sulforodamine B antiproliferative test, sensitive MCF-7 cells. As to conditions: MCF7, MCF-7 sensitive, 24 hours incubation, survival after another 48 hours, read-out: IC50 +/− SD, antiproliferative activity vs sensitive cell, MCF-7. The format is cell-based. How it is done:
(§1) For the cytotoxic activity, proliferation screening tests were used, with different tumour lines, such as MCF-7 (human mammary carcinoma), LoVo (human colon carcinoma), MES-SA (human uterine sarcoma), or K-562 (human chronic myeloid leukaemia).
(§2) The test used was the sulforodamine B test used for screening anticancer products at the National Cancer Institute (Skehan, 1990). The molecules at scalar concentrations over a range from 500 μM to 0.97 μM, were incubated in parallel with different human cell lines for 24 hours. After removing the products, cell survival was investigated after another 48 hours with the NCI test. The antiproliferative capacity of the compounds was quantified in terms of IC50±SD (concentration of the molecule that inhibits 50% of cell survival) processed using a curve fitting program (De Lean et al., 1978).

Data set [2] deals with LoVo (human colon carcinoma). Put plainly: Sulforodamine B antiproliferative test, sensitive LoVo cells. The format is cell-based. As to conditions: 24 hours incubation, survival after another 48 hours, read-out: IC50 +/− SD, antiproliferative activity vs sensitive cell, LoVo. On the procedure:
as §1, §2

Data set [3] has as its system MCF-7 resistant cell (MCF-7/Dx, overexpressing P-glycoprotein, resistant to doxorubicin). Kind of data set: Antiproliferative activity vs resistant cells, MCF-7. The format is cell-based. As to conditions: Homo sapiens, MCF7; MCF-7 resistant (doxorubicin-resistant); read-out: IC50 +/− SD, antiproliferative activity vs resistent cell, MCF-7. On the procedure:
as §2
(§3) The cytotoxicity of the molecules on tumour lines resistant to chemosensitising activity was assessed on various tumour cell lines overexpressing P-glycoprotein and resistant to doxorubicin (100-fold) and cross-resistant to daunorubicin, actinomycin D, mitoxantrone, vincristine, vinblastine, taxol, colchicine, and etoposide. The cytotoxicity of the products was assessed using the same test adopted for the sensitive tumour cells.

Data set [4] concerns LoVo resistant cell (LoVo/Dx, overexpressing P-glycoprotein, resistant to doxorubicin). Kind of data set: Antiproliferative activity vs resistant cells, LoVo. The format is cell-based. As to conditions: Homo sapiens, read-out: IC50 +/− SD, antiproliferative activity vs resistent cell, LoVo. How it is done: as §2, §3
The subject of the next data set is MCF-7 cells. Put plainly: Cell cycle and apoptosis analysis (propidium iodide, FACS) on MCF-7 cells. The format is cell-based, human. On the procedure:
The cell cycle and apoptosis analysis on a tumour line was done by incubating the products for 24 hours at a concentration equal to approximately the IC50 Values with MCF-7 cells. The molecules were removed and the cell cycle and apoptosis were assessed at different times (0, 24, 48 hours). The cells were stained with propidium iodide and analysed with a cytofluorimeter (FACS) ([…] fluorescence activated cell sorter) by means of an argon ion laser set at 488 nm for the excitation. To assess the percentage of cells in the various stages of the cycle, linear DNA histograms were analysed with a cell fit program distributed by the equipment manufacturer. For the analysis of apoptosis, a region was inserted below the G0/G1 peak of the control population and the data were analysed with software supplied by the company (Lysis II-C32).

The subject of a further data set is MCF-7/Dx line. Kind of data set: Potentiation of doxorubicin cytotoxicity (MDR ratio), MCF-7/Dx. The format is cell-based, human. The conditions noted are these: compound at 11 μM. On the procedure: as §3
(§4) Later, the products were assayed at a concentration lower than or equal to the one that inhibits 10% of cell survival. At this concentration, the molecules were tested in parallel in the absence and presence of doxorubicin. MDR ratios were calculated for the IC50 values in order to establish the degree of potentiation of the cytotoxic activity of doxorubicin induced by the product (MDR ratio) (De Lean et al. (1978) A. J. Physiol. 235, E97-102); (Skehan et al. (1990) J. Natl. Cancer Inst. 82, 1107-1112).

Another data set relates to LoVo/Dx cell line. Kind of data set: Potentiation of doxorubicin cytotoxicity (MDR ratio), LoVo/Dx. The format is cell-based, human. As to conditions: compound at 11 μM. How it is done: as §3, §4
Data set [5] in a line: Cytotoxicity on endothelial cells (BMEC). The format is cell-based, bovine. As to conditions: bovine, BMEC (bovine medullary endothelial cell) cultures.
The test system of data set [6] is BMEC (bovine medullary endothelial cell). Put plainly: Cytotoxicity on endothelial cells (BMEC). The format is cell-based. As to conditions: BMEC.
Data set [7] shares this test system. Put plainly: Chemotactic assay with the Boyden chamber on BMEC. The format is cell-based. As to conditions: for % inhibition of migration at IC0/D.S.: BMEC, at IC0, chemotactic stimulus 1% bovine serum in DMEM. On the procedure: For the antiangiogenic activity the chemotactic assay with the Boyden chamber was performed (Werner F., Goodwin R. H. and Leonard E. J., Journal of Immunological Methods 1980; 33, 239-247), using both bovine aortal endothelial cell (BAEC) cultures and bovine medullary endothelial cell (BMEC) cultures. The assays were performed at IC0 (maximum non-cytotoxic concentration) and the results expressed as % inhibition of migration across a porous filter in response to a chemotactic stimulus (1% bovine serum in DMEM culture medium). This finding was obtained by direct cell count under the optical microscope, and the percentage migration inhibition was calculated according to the formula (T−C/C)×100, where T=mean number of cells migrating in the sample and C=mean number of cells migrating in the control. The control consisted of cells which migrated towards the serum, not treated with the study molecules, and included in every chemotaxis experiment. The data refer to the readings of 5 microscopic fields/well in 4 independent chemotaxis wells per sample.

Setting [8] is: read-out: IC50 (μM), cytotoxicity on BMEC.

The structures appear in SMILES notation. Like-named read-outs stand apart in the source and are kept apart here.

Consider `CC1(C)OCC(C2c3c([nH]c4ccccc34)C(c3c[nH]c4ccccc34)C3OC(C)(C)OC32)O1` (racemic) [ST1372, 1-(indol-3-yl)-2,3-O-isopropylidene-4-(2,3-O-isopropylidene-ethyl)-tetrahydrocarbazole], for which the melting point (commonly the temperature, or range, at which the solid turns liquid) was 204 to 206 °C (dec.). Also, the IC50 in [1] turned out to be 21.1 µM. Besides, the IC50 in [2] was found to be 21.7 µM. Moreover, the IC50 in [3] was determined as 21.1 µM. For the same molecule, the IC50 in data set [4] was found to be 21.7 µM. The “increases and blocks in G0/G1 (% of the cell)” value in the data set on MCF-7 cells (MCF-7, 20 μM, relative to control) turned out to be 23%. Also, the “increases and blocks in G0/G1 (% of the cell)” value in the data set on MCF-7 cells (MCF-7, 40 μM, relative to control) came out at 32%. Besides, in the data set on MCF-7 cells (MCF-7, compound at 20 μM), the “G0/G1 (%)” value came to 20 μM = 54.4%, the “G2 + M (%)” value was 20 μM = 11.4% and the “S(%)” value is on record as 20 μM = 34.2%. For the same molecule, in the data set on MCF-7 cells (MCF-7, compound at 40 μM), the “G0/G1 (%)” value was found to be 40 μM = 57.8%, the “G2 + M (%)” value is listed as 40 μM = 5.4%, the “S(%)” value was found to be 40 μM = 36.8% and the “Apoptosis 48 h (%)” value is listed as 40 μM = 16%. Also, in the data set on MCF-7/Dx line, the “increase of the activity of Doxorubicin (MDR ratio)” value is 3,5 times. The “increase of the activity of Doxorubicin (MDR ratio)” value with LoVo/Dx cell line is given as 3,5 times.
For `c1ccc2c(C3CCCCc4c3[nH]c3ccccc43)c[nH]c2c1` (racemic) [ST1381, 1-(indol-3-yl)-indo [2,3a]-cycloheptan.], the IC50 in [1] is 28.5 µM; in data set [2], 22.5 µM; in data set [3] it was 28.4 µM; in data set [4], 25.2 µM; in data set [5] (endothelial cell, read-out: cytotoxicity vs endotelial cell (IC)), greater than 100 µM; in data set [6], greater than 100 µM. For the same molecule, in the data set on MCF-7 cells (MCF-7, 30 μM, relative to control), the “increases and blocked in G0/G1 (% of the cell line)” value came out at 32%. Also, in the data set with MCF-7 cells (MCF-7, compound at 30 μM), the “G0/G1 (%)” value came to 30 μM = 57.7%. In the data set on MCF-7 cells (MCF-7, compound at 30 μM), the “G2 + M (%)” value came out at 30 μM = 10.1%. Besides, the “S(%)” value with MCF-7 cells (MCF-7, compound at 30 μM) is 30 μM = 32.2%. Besides, the “Apoptosis 48 h (%)” value in the data set with MCF-7 cells (MCF-7, compound at 30 μM) amounted to 30 μM = 3.3%. In addition, the “IC0 (μM) (maximum non-cytotoxic concentration)” value in data set [6] amounted to 30 µM. In addition, in data set [7], the “% inhibition of migration at IC0/D.S.” value is on record as −61.7%. The entries for the “chemotaxis of endothelial cells (in words)” value in [7] and in [7] (listed as ST 1381) were “active for the chemotaxys” and “the better anti-chemiotactic compound”, respectively.
Turning to `OCCCCC(c1cc2cc3c(cc2[nH]1)OCO3)c1c[nH]c2cc3c(cc12)OCO3` (racemic) [ST1423, (R,S)-5-hydroxy-1,1-di-(5′,6′-methylendioxy-indol-2-yl,5 ″,6″-methylendioxy-indol-3-yl)-pentane], the melting point was 220 °C (dec.).
In the case of `c1ccc2c(C3CCCCc4[nH]c5ccccc5c43)c[nH]c2c1` (racemic) [ST1621, 5-(indol-3-yl)-indo [2,3a]-cycloheptan.], the IC50 came out at 22.5 µM in data set [1]; 34.8 µM in [2]; 68.3 µM in [3]; 23.8 µM in data set [4]; 10 µM in data set [5] (setting [8]). Also, the “IC0 (μM) (maximum non-cytotoxic concentration)” value in data set [6] came out at 0.1 µM. Besides, in data set [7], the “% inhibition of migration at IC0/D.S.” value is −43 +/− 4%.
As for `c1ccc2c(C3CCCc4c3[nH]c3ccccc43)c[nH]c2c1` (racemic) [ST1728, 1-(1H-indol-3-yl)-tetrahydro-1H-carbazole], the melting point stood at 207 °C. Further, the IC50 in data set [1] turned out to be 22 µM. The IC50 in data set [2] was found to be 22.8 µM.
As for `c1ccc2c(C3CCCc4[nH]c5ccccc5c43)c[nH]c2c1` (racemic) [ST1729, 4-(1H-indol-3-yl)-tetrahydro-1H-carbazole], the melting point was 182 °C. In addition, in data set [1], the IC50 is 35 µM. Also, the IC50 in data set [2] worked out at 50.5 µM. The IC50 in data set [5] (setting [8]) was 80 µM. The “IC0 (μM) (maximum non-cytotoxic concentration)” value in [6] turned out to be 25 µM. Moreover, in data set [7], the “% inhibition of migration at IC0/D.S.” value is −40 +/− 3%.
For the molecule `c1[nH]c2cc3c(cc2c1C1CCCCc2c1[nH]c1cc4c(cc21)OCO4)OCO3` (racemic) [ST1749, 1-(5″, 6″-methylendioxy-indol-3-yl)-5′,6′-methyleridioxy-indo [2,3-a]-cycloeptane], the melting point is 184 °C (dec.). Also, in [5] (setting [8]), the IC50 is greater than 200 µM. Further, in [6], the “IC0 (μM) (maximum non-cytotoxic concentration)” value is 100 µM. The “% inhibition of migration at IC0/D.S.” value in [7] is listed as −40 +/− 3%.
With `c1[nH]c2cc3c(cc2c1C1CCCc2c1[nH]c1cc4c(cc21)OCO4)OCO3` (racemic) [ST1751, 1-(5′,6′-methylendioxy-1H-indol-3-yl)-6,7-methylendioxy-tetrahydro-1H-carbazole], the melting point was 200 °C (dec.). Moreover, in data set [3], the IC50 was determined as 58.6 µM.
For `c1ccc(COc2ccc3[nH]cc(C4CCCCc5c4[nH]c4ccc(OCc6ccccc6)cc54)c3c2)cc1` (racemic) [ST1765, 1-(5″-benzyloxy-indol-3-yl)-5′-benzyloxy-indo[2,3a]-cycloheptan.], the melting point is 286 °C (dec.). The IC50 in data set [1] is 11.5 µM. Besides, the IC50 in data set [2] came out at 10.5 µM. Further, the IC50 in [3] was 24.8 µM. Also, the IC50 in [4] was 17 µM.
On to `c1[nH]c2cc3c(cc2c1C1CCCc2[nH]c4cc5c(cc4c21)OCO5)OCO3` (racemic) [ST1777, 4-(5′,6′-methylendioxy-1H-indol-3-yl)-6,7-methylendioxy-tetrahydro-1H-carbazole], for which the IC50 came to 0.96 µM in [1] and 0.64 µM in [2].
As to `c1ccc(COc2ccc3[nH]cc(C4CCCCc5[nH]c6ccc(OCc7ccccc7)cc6c54)c3c2)cc1` (racemic) [ST1778, 5-(5″-benzyloxy-indol-3-yl)-5′-benzyloxy-indo[2,3a]-cycloheptan.], the IC50 in data set [1] was found to be 28.5 µM; in data set [2] it was 54.5 µM; in [3] it was 71 µM; in data set [4] it was 65.1 µM; in data set [5] (setting [8]) it was 50 µM. For the same molecule, the “IC0 (μM) (maximum non-cytotoxic concentration)” value in data set [6] was 25 µM. For the same molecule, in [7], the “% inhibition of migration at IC0/D.S.” value is −40 +/− 4%.
Regarding `Oc1ccc2[nH]cc(C3CCCCc4c3[nH]c3ccc(O)cc43)c2c1` (racemic) [ST1783, 1-(5″-hydroxy-1H-indol-3-yl)-5′-hydroxy-indo[2,3a]-cycloheptan.], the IC50 in data set [1] came out at 27 µM; in [2] it was 29 µM; in [3] it was 39 µM; in [5] (setting [8]) it was 60 µM. Also, the “IC0 (μM) (maximum non-cytotoxic concentration)” value in data set [6] turned out to be 10 µM. In [7], the “% inhibition of migration at IC0/D.S.” value was −46%.
For the molecule `OCCCCC(c1c[nH]c2cc3c(cc12)OCO3)c1c[nH]c2cc3c(cc12)OCO3` [ST1422, 5-hydroxy-1,1-di-(5,6-methylendioxy-indol-3-yl)-pentane], the melting point is 200 °C (dec.).
As to `OCCCC(c1c[nH]c2cc3c(cc12)OCO3)c1c[nH]c2cc3c(cc12)OCO3` [ST1730, 4-hydroxy-1,1-di-(5′,6′-methylendioxy-indol-3-yl)-butane], the melting point was 240 °C (dec.).
